Assay results reported in patent US20200306255A1, “COMPOSITIONS AND METHODS FOR TREATING NIEMANN PICK C DISEASE” (AI Therapeutics, Inc., priority 2016, published 2020).

Tests used:
[1] = plasma protein binding, rat; assay type: in vitro ADME
Procedure: (§1) In embodiments, the apilimod compound for use in the compositions and methods of the invention is the free base or dimesylate salt form, MW 610.7 (dimesylate salt); tPSA 83.1; pKa 5.39 (±0.03), 4.54 (±0.27); HBD 1. […] In embodiments, the apilimod compound for use in the compositions and methods of the invention is an active metabolite of apilimod. Six primary metabolites were identified in rat and human microsomal and hepatocyte stability studies. […] Tmax generally occurred within 1 or 2 hours after the oral dose, consistent with the […] of this compound from the circulation. […] The primary metabolites are short-lived in circulation. Both apilimod free base and the dimesylate salt are highly bound (>99%) to rat, dog and human plasma proteins.

[2] = plasma protein binding, dog; assay type: in vitro ADME; conditions: read-out: bound to plasma proteins
Procedure: as §1

[3] = plasma protein binding, human; assay type: in vitro ADME; conditions: read-out: bound to plasma proteins
Procedure: as §1

CYP3A4 = CYP3A4 (Homo sapiens, UniProt P08684); test: reaction phenotyping studies, CYP3A4; assay type: in vitro ADME
Chain of CYP3A4 (P08684 whole entry): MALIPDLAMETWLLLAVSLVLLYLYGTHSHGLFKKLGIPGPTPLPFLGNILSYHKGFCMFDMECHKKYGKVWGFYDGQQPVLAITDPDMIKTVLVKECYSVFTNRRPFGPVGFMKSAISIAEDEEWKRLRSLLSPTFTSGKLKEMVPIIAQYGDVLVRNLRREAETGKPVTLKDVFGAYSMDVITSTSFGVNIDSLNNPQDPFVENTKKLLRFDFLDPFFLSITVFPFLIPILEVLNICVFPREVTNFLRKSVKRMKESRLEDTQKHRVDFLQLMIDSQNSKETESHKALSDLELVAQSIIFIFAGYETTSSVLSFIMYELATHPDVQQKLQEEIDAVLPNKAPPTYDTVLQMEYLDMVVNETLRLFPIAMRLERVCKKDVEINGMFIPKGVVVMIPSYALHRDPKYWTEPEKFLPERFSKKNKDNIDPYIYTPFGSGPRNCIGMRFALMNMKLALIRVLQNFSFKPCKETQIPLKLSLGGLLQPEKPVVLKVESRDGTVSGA
Procedure: as §1

NPC1 fibroblasts = test: HexB release lysosome exocytosis assay; assay type: cell-based, human; conditions: 24 hours treatment; FIG. 3
Procedure: NPC1 mutant patient skin fibroblasts have been used as a robust cellular model of NPC1 disease (Chen 2010, Xu M et al 2012, Xu M et al 2014) and these cells display a number of NPC-related defects including intracellular accumulation of cholesterol other lipids.
FIG. 3: the rate of lysosome exocytosis can be monitored by the measurement of the release of lysosomal proteins such as Hexosaminidase Subunit Beta(HexB). In FIG. 3, NPC1 fibroblasts were treated with apilimod for 24 hours, the HexB release lysosome exocytosis assay was performed as previously described (Xu et al 2012). The rate of HexB release from NPC1 was increased by apilimod treatment providing evidence for an increased rate of lysosome exocytosis likely leading to cholesterol lowering in NPC1 cells.
Shown in the figure are fluorescence microscopy images of the NPC1 cells treated with 0, 78, 156, and 625 nM apilimod. […] In FIG. 3, apilimod treatment of NPC1 fibroblasts can enhance the rate of lysosome exocytosis as one of the mechanisms for cells to clear lysosome storage of cholesterol and lipid accumulations in NPC.

osteoclast formation = conditions: in vitro assay; from WO 2005/000404; read-out: inhibitory activity against osteoclast formation, IC50; cited from earlier work

## Cc1cccc(/C=N/Nc2cc(N3CCOCC3)nc(OCCc3ccccn3)n2)c1 [apilimod]
[1]
  fraction unbound: < 0.01
[2]
  fraction unbound: < 0.01
[3]
  fraction unbound: < 0.01
CYP3A4
  contribution of CYP3A4 to metabolism: contribute to metabolism
NPC1 fibroblasts
  rate of HexB release (lysosome exocytosis): increased
Osteoclast formation
  IC50: 15 nM
